Test results taken from ChEMBL document CHEMBL4342498, “Design and Discovery of an Orally Efficacious Spiroindolinone-Based Tankyrase Inhibitor for the Treatment of Colon Cancer” (J Med Chem, 2020).
Converted amounts (≈) assume the structure as drawn. The source made the active and inactive calls. The calls are words filed in the database; no cut-off is given here.

Key:
[1] = Dose normalized initial plasma concentration in Sprague-Dawley rat at 1 mg/kg, iv; format: ADME, organism-based; details: in vivo
[2] = Stability in rat liver microsomes assessed as parent compound remaining at 1 uM measured after 60 mins in presence of NADPH by LC-MS/MS analysis; format: ADME, Microsome; details: read-out: Stability
[3] = molecular target: T1, Tankyrase 1/2 (Homo sapiens) (UniProt Q9H2K2+O95271); test: Inhibition of TNKS/TNKS2-mediated WNT/beta-catenin signaling pathway in human COLO320DM cells assessed as upregulation of AXIN2 expression at 0.1 uM measured after 16 hrs by Western blot analysis relative to control; format: cell-based
[4] = Protein binding in mouse plasma assessed as unbound fraction at 1 uM measured after 24 hrs by LC-MS/MS analysis; format: ADME, cell-free
[5] = Stability in human liver microsomes assessed as parent compound remaining at 1 uM measured after 60 mins in presence of NADPH by LC-MS/MS analysis; format: ADME, Microsome; details: read-out: Stability
COLO 320DM [6] = test: Antitumor activity against human COLO320DM cells xenografted in Prkdc-NOD-SCID CB17 mouse assessed as tumor growth inhibition at 150 mg/kg, ip administered twice daily for 5 days followed by 2 days interval for 2 cycles relative to control; format: functional; details: read-out: TGI
Tankyrase 1/2 [7] = molecular target: T2, Tankyrase 1/2 (Homo sapiens, UniProt Q9H2K2+O95271)
T2 sequence (Q9H2K2 whole entry): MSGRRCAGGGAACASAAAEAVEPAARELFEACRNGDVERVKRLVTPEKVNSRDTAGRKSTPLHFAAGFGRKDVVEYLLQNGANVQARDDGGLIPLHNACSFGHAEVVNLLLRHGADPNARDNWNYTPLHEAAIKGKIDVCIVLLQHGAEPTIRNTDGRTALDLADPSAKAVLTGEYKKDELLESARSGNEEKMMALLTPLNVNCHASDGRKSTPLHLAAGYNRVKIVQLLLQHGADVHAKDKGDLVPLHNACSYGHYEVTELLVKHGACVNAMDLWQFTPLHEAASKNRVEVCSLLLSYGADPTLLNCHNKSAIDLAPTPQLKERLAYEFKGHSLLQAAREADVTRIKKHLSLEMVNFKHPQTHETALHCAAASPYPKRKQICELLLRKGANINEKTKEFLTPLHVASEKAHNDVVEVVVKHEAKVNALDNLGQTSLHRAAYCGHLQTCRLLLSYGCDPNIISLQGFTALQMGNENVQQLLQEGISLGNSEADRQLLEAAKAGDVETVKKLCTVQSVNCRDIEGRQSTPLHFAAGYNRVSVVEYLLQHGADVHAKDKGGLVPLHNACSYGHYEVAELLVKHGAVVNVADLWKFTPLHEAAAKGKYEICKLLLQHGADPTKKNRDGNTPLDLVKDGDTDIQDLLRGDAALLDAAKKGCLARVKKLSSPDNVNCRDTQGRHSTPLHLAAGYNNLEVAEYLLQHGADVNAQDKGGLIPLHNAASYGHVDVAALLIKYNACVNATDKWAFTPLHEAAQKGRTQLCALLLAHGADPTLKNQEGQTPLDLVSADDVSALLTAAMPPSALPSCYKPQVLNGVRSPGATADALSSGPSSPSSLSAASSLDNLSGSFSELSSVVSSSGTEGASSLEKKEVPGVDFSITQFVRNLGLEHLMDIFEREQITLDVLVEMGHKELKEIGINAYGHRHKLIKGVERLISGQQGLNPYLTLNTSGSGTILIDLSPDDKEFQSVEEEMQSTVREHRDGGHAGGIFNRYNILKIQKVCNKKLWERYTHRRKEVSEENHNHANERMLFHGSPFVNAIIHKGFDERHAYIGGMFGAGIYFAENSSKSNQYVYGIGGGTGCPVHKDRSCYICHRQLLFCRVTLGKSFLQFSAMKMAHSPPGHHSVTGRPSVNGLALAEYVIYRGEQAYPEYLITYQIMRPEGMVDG
T2 sequence (O95271 whole entry): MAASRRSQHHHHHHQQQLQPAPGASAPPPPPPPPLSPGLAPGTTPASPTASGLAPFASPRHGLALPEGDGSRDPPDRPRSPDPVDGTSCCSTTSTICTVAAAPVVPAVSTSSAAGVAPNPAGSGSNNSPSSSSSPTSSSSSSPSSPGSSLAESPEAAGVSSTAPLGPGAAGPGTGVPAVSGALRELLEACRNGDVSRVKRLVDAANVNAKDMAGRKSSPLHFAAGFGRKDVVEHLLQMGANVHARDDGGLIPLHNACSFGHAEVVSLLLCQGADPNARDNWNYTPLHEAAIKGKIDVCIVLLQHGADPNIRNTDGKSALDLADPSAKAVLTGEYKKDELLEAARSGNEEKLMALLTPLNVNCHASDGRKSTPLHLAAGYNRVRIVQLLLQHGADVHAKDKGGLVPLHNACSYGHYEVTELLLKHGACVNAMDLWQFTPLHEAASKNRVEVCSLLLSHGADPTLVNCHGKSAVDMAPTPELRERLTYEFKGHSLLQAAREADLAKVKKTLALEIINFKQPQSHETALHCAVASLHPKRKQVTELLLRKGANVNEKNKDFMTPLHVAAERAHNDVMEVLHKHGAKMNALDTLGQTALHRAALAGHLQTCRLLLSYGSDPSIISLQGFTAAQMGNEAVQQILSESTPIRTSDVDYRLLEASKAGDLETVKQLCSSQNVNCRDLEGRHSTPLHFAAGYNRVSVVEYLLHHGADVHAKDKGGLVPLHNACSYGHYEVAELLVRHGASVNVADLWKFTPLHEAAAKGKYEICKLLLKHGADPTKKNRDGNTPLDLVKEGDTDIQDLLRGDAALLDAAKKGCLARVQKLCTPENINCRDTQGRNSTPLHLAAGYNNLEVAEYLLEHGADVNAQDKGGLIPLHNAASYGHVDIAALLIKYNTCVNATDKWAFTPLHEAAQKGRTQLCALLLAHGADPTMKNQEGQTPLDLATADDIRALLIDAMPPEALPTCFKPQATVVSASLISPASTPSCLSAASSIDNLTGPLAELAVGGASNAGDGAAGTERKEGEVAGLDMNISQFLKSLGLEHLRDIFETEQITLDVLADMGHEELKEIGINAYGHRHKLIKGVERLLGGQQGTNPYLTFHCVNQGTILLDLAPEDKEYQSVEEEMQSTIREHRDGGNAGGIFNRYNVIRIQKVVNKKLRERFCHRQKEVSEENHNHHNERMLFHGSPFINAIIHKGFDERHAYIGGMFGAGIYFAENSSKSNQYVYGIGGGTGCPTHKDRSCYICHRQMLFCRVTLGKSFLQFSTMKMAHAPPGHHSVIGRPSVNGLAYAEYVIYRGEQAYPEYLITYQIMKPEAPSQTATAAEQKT
Description: Inhibition of TNKS/TNKS2 (unknown origin) expressed in human DLD1 cells assessed as reduction in Wnt-signaling measured after 24 hrs by TCF-luciferase reporter gene assay

[8] = Stability in rat liver microsomes assessed as parent compound remaining at 1 uM measured after 30 mins in presence of NADPH by LC-MS/MS analysis; format: ADME, Microsome; details: read-out: Stability
[9] = Dose normalized AUC (infinity) in Sprague-Dawley rat at 1 mg/kg, iv; format: ADME, organism-based; details: in vivo
[10] = Stability in mouse liver microsomes assessed as parent compound remaining at 1 uM measured after 60 mins in presence of NADPH by LC-MS/MS analysis; format: ADME, Microsome; details: read-out: Stability
Tankyrase 1/2 [11] = molecular target: T2, Tankyrase 1/2; details: hek293
Description: Inhibition of TNKS/TNKS2 (unknown origin) expressed in HEK293 cells assessed as reduction in Wnt-signaling measured after 24 hrs by TCF-luciferase reporter gene assay

[12] = Permeability of the compound measured after 4 hrs by PAMPA; format: ADME; details: read-out: permeability
[13] = Protein binding in human plasma assessed as unbound fraction at 1 uM measured after 24 hrs by LC-MS/MS analysis; format: ADME, cell-free
COLO 320DM [14] = test: Antitumor activity against human COLO320DM cells xenografted in Prkdc-NOD-SCID CB17 mouse assessed as tumor growth inhibition at 300 mg/kg, po administered twice daily for 5 days followed by 2 days interval for 2 cycles relative to control; format: functional; details: read-out: TGI
RKO = test: Antiproliferative activity against human RKO cells assessed inhibition of cell growth measured after 5 days by MTT assay; format: functional; details: 120 h
[15] = molecular target: Poly [ADP-ribose] polymerase 1 (Homo sapiens, UniProt P09874); test: Inhibition of recombinant human PARP1 expressed in Escherichia coli assessed as reduction in auto-PARylation using histone as substrate measured after 45 mins in presence of biotinylated-NAD+ by ELISA
Poly [ADP-ribose] polymerase 1, sequence (P09874 whole entry): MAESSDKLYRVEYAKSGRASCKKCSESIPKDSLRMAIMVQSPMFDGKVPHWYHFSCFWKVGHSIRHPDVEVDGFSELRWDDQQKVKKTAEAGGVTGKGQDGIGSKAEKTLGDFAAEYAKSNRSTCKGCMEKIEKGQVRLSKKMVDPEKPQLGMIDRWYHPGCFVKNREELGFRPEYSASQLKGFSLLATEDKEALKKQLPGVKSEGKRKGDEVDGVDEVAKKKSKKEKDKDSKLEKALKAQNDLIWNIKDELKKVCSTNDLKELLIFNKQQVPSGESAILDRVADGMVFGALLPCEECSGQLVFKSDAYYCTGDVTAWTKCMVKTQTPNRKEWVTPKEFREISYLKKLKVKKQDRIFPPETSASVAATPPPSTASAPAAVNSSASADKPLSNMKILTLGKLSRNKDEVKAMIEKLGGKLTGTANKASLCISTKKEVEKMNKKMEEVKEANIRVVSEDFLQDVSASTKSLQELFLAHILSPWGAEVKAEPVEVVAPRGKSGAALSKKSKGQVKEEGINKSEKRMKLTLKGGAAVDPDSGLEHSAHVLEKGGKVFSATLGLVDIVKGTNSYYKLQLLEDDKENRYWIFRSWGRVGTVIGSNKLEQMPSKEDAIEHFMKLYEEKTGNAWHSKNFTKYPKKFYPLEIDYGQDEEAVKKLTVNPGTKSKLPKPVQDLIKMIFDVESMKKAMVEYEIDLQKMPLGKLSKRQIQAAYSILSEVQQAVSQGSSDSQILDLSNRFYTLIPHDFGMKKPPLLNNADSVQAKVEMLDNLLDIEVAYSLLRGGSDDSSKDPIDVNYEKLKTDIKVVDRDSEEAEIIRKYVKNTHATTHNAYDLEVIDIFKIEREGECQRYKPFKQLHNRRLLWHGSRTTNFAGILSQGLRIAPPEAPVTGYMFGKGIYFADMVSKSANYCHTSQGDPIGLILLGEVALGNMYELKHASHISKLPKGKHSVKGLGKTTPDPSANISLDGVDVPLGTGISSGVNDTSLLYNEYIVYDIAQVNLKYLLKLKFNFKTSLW

COLO 320DM [16] = test: Antiproliferative activity against human COLO320DM cells assessed as inhibition of cell growth measured after 4 days by CellTiter-Glo assay; format: functional; details: 96 h
COLO 320DM [17] = test: Antiproliferative activity against human COLO320DM cells assessed inhibition of cell growth measured after 5 days by MTT assay; format: functional; details: 120 h
physchem = details: phosphate buffered saline, pH 7.4
[18] = molecular target: T3, Poly [ADP-ribose] polymerase tankyrase-2 (Homo sapiens, UniProt Q9H2K2); test: Inhibition of recombinant human N-terminal TEV cleavage site-fused/FLAG-poly his-tagged TNKS2 ARC5-SAM-PARP domain (613 to 1166 residues) expressed in Escherichia coli assessed as reduction in auto-PARylation preincubated for 10 mins followed by biotinylated-NAD+ addition and measured after 45 mins by ELISA
T3 sequence (Q9H2K2 whole entry): T2 sequence (Q9H2K2 whole entry)

[19] = molecular target: T4, Poly [ADP-ribose] polymerase tankyrase-1 (Homo sapiens, UniProt O95271)
T4 sequence (O95271 whole entry): T2 sequence (O95271 whole entry)
Description: Inhibition of recombinant human N-terminal TEV cleavage site-fused/FLAG-poly his-tagged TNKS SAM-PARP domain (1024 to 1327 residues) expressed in Escherichia coli assessed as reduction in auto-PARylation preincubated for 10 mins followed by biotinylated-NAD+ addition and measured after 45 mins by ELISA

[20] = Stability in human liver microsomes assessed as parent compound remaining at 1 uM measured after 30 mins in presence of NADPH by LC-MS/MS analysis; format: ADME, Microsome; details: read-out: Stability
[21] = Stability in mouse liver microsomes assessed as parent compound remaining at 1 uM measured after 30 mins in presence of NADPH by LC-MS/MS analysis; format: ADME, Microsome; details: read-out: Stability
MDR1 = test: Efflux ratio of permeability across basolateral to apical side over apical to basolateral side in MDCK2-MDR1 cells; format: ADME, cell-based, Canis lupus familiaris; details: dog, MDCK-MDR1
[22] = Net efflux ratio of permeability across basolateral to apical side over apical to basolateral side in MDCK2-MDR1 cells to MDCK2 cells; format: ADME, cell-based, Canis lupus familiaris; details: dog, mdck
[23] = Efflux ratio of permeability across basolateral to apical side over apical to basolateral side in MDCK2 cells; format: ADME, cell-based, Canis lupus familiaris, MDCK-II; details: dog, mdck
[24] = molecular target: T1, Tankyrase 1/2 (Homo sapiens); test: Inhibition of TNKS/TNKS2-mediated WNT/beta-catenin signaling pathway in human COLO320DM cells assessed as upregulation of AXIN2 expression at 0.33 uM measured after 16 hrs by Western blot analysis; format: cell-based
[25] = molecular target: T1, Tankyrase 1/2 (Homo sapiens); test: Inhibition of TNKS/TNKS2-mediated WNT/beta-catenin signaling pathway in human COLO320DM cells assessed as reduction in beta-catenin expression at 0.33 uM measured after 16 hrs by Western blot analysis; format: cell-based

SMILES	C0/dose [1] [µmol/L]	remaining at 1 h, 1 µM [2] [%]	fraction unbound at 24 h, 1 µM [4]	remaining at 1 h, 1 µM [5] [%]	IC50 (Tankyrase 1/2 [7]) [nM]	remaining at 0.5 h, 1 µM [8] [%]	AUC/dose [9] [µmol·h/L]	remaining at 1 h, 1 µM [10] [%]	IC50 (Tankyrase 1/2 [11]) [nM]	Papp at 4 h [12] [×10⁻⁶ cm/s]	fraction unbound at 24 h, 1 µM [13]	GI50 (RKO) [µM]	GI50 (COLO 320DM [16]) [nM]	GI50 (COLO 320DM [17]) [nM]	solubility at 1 h, 200 µM (physchem) [µg/mL]	IC50 [18] [nM]	IC50 [19] [nM]	efflux ratio (MDR1)	Ratio [22]	efflux ratio [23]	further results
O=c1[nH]c(N2CCC3(CC2)CN(CCO)c2cc(F)cc(F)c23)nc2c1CCCC2	9.84	3.2	0.004 to 0.015	2.2 to 5.9	77.6	12.8	4.42	3.2 to 18.3	12.1	2	0.004 to 0.015	> 10	1630	450							fold change (FC) [3]: 4.42; inhibition in vivo at 150 mg/kg (COLO 320DM [6]): 47.2%; inhibition in vivo at 300 mg/kg (COLO 320DM [14]): 51.9%; IC50 [15]: > 100 µM
CS(=O)(=O)c1ccc(-c2nnc(/C=C/c3nnc(-c4ccc(C#N)cc4)o3)n2-c2ccccc2Cl)nc1	1.54		0.035	100			0.79	95.8			0.028	8.9	1500	430							
CN1CCCc2c1nc(N1CCC3(CC1)C(=O)N(CCO)c1cc(F)cc(F)c13)[nH]c2=O		0.5	0.083	6.3	3.9	2		2 to 8.5	1.1	3	0.022		250		82.9 (≈ 186 µM)	13.5	7.5	24.6	3.8	6.4	remaining at 0.5 h, 1 µM [20]: 21%; remaining at 0.5 h, 1 µM [21]: 21.2%
CN1CCCc2c1nc(N1CCC3(CC1)C(=O)N(C)c1cc(OCC(=O)O)cc(F)c13)[nH]c2=O				97.6	1877			93.3	507				300		98.4 (≈ 209 µM)	9.9	4.2	0.3	1	0.3	inhibition [24]: inactive; inhibition [25]: inactive
